Results taken from patent US20180243421A1, “IMMUNOSTIMULATING AGENT” (AJINOMOTO CO., INC., priority 2015, published 2018).

Experiments:
[1] = system: anti-OVA-specific IgE antibody; settings: mouse, in vivo
Experimental: The serum sample obtained in Example 1 was measured for an anti-OVA-specific IgE antibody. The measurement method of the anti-OVA-specific IgE antibody in Example 3 and Examples 6, 9 is as follows.
Measurement Method of anti-OVA-specific IgE Antibody
DS mouse IgE ELISA (OVA) kit manufactured by DS Pharma Biomedical Co., Ltd. was used. The protocol is briefly shown below.
The serum sample and a standard reagent for drawing an analytical curve are diluted with a buffer and, after stirring, left standing at room temperature for 10 min. The sample and the standard solution are added to a plate bound with an IgE capture antibody in advance and, after stirring, the mixture is left standing at room temperature for 60 min. The mixture is washed three times with wash, HRP-labeled OVA is added, and the mixture is left standing at room temperature for 30 min. The mixture is washed three times with wash, a substrate solution is added, and the mixture is left standing in dark at room temperature for 30 min. A reaction quenching liquid is added, the mixture is stirred, and the absorbance (OD Value=450 nm) is immediately measured.
This test was performed in the same manner as in Example 3 except that N^2-hexadecanoyl-L-arginine (SZ61), N-hexadecanoylagmatine (SZ62), N^2-hexadecanoyl-L-arginine methyl ester hydrochloride (SZ63), N^2-octadecanoyl-L-glutamine tert-butyl ester (SZ64), and N^2-octadecanoyl-L-glutamine (SZ65) were used.
This test was performed in the same manner as in Example 6 except that N-hexadecanoylagmatine (SZ62), N^2-octadecanoyl-L-glutamine tert-butyl ester (SZ64), N-docosanoyl-L-leucine methyl ester (SZ70), and N-docosanoyl-L-phenylalanine methyl ester (SZ71) were used and a positive control adjuvant Addavax™ (InvivoGen) administration group was formed.
(§1) The allergy inducing activity test was performed in the same manner as in Example 3 except that Addavax™, N-(2-octadecyleicosanoyl)-L-leucine methyl ester (SZ86), N-hexadecanoyl-L-leucinamide (SZ90), N^2-hexadecanoyl-N^1,N^1-diethyl-L-leucinamide (SZ92), N^2-hexadecanoyl-L-arginine hexyl ester hydrochloride (SZ99) and N^2-docosanoyl-N^1,N^1-diethyl-L-glutamic acid 1-amide (SZ106) were used.
as §1, with “N-hexadecanoyl-L-leucine” for “N^2-hexadecanoyl-L-arginine”, “(SZ97),” for “hydrochloride (SZ99) and”, “(SZ106) and N-docosanoylagmatine hydrochloride (SZ108)” for “(SZ106)”
8-Week-old female BALB/c mice were divided into groups (N=6), and each group was primarily immunized by dorsal-subcutaneous administration of (1) ovalbumin (OVA) (5 μg) dissolved in saline as an antigen (OVA single administration group), (2) OVA (10 μg) and aluminum hydroxide salt dissolved in saline (Alum administration group), (3) OVA 10 μg and Addavax™ (mixed with saline at 1:1) dissolved in saline (Addavax™ administration group), (4) OVA 10 μg and CpG 5 μg dissolved in saline (CpG administration group), (5) OVA 10 μg and MPL 5 μg dissolved in saline (MPL administration group), (6) OVA (5 μg) and SZ62 (0.256 μmol) dissolved or dispersed in 5% αCD-added saline (SZ62 administration group), (7) OVA (5 μg), SZ62 (0.256 μmol) and CpG 5 μg dissolved or dispersed in 5% αCD-added saline (SZ62+CpG administration group), (8) OVA 10 μg, Addavax™ (mixed with saline at 1:1) and CpG 5 μg dissolved in saline (Addavax™+CpG administration group), (9) OVA (5 μg), SZ62 (0.256 μmol) and MPL 5 μg dissolved or dispersed in 5% αCD-added saline (SZ62+MPL administration group), (10) OVA (10 μg), aluminum hydroxide salt (Alum) and MPL 5 μg dissolved in saline (Alum+MPL administration group), each per mouse. One week later, the secondary immunization was carried out by dorsal-subcutaneous administration of solutions or dispersions similar to those of the above-mentioned (1) to (10) again.

[2] = system: anti-OVA-specific IgG1 subclass antibody; assay: Adjuvant activity: anti-OVA-specific IgG1 subclass antibody in serum after secondary immunization (Examples 1, 5, 7, 8; ELISA absorbance); assay type: in vivo, BALB/c mice
Experimental: Two weeks from the secondary immunization, the whole blood was extracted under anesthesia, and the obtained serum sample was measured for anti-OVA-specific IgG1 subclass antibody.
A method for measurement of the anti-OVA-specific IgG1 subclass antibody in Example 1, and the following Examples 5, 7 and 8 is as follows.
Measurement Method of anti-OVA-specific IgG1 Subclass Antibody
To a 96 well plate was added 5 μg/ml OVA at 100 μl/well, and the mixture was incubated at 4° C. overnight. After incubation, the mixture was washed three times with 200 μl of PBS-T (PBS+0.05%(v/v) Tween 20) per well, and blocked with 100 μl of 5% FCS/PBS solution per well at room temperature for 1 to 2 hr. Thereafter, the mixture was washed three times with PBS-T (200 μl/well), a diluted serum sample (100 μl/well) or the same amount of 5% FCS/PBS solution as a control was added, and the mixture was incubated at 37° C. for 1 hr. Thereafter, the mixture was washed five times with PBS-T (200 μl/well), a diluted biotinylated anti-mouse IgG1 antibody (100 μl/well) was added, and the mixture was incubated at 37° C. for 45 min. Thereafter, the mixture was washed five times with PBS-T (200 μl/well), a diluted anti-biotin-HRP antibody was added (100 μl/well), and the mixture was incubated at 37° C. for another 30 min. Thereafter, the mixture was washed five times with PBS-T (200 μl/well), TMB substrate solution was added (100 μl/well), and the mixture was incubated at room temperature for 10 to 15 min. Thereafter, a reaction quenching liquid (2N sulfuric acid solution) was added (50 μl/well) to discontinue a color developing reaction, and the absorbance (OD Value=450 nm) was measured by a microplate reader.

[3] = Example 5, same manner as Example 1
[4] = Example 8, same manner as Example 7

## CCCCCCCCCCCCCCCC(=O)N[C@@H](CCCNC(=N)N)C(=O)O [SZ61, N^2-hexadecanoyl-L-arginine]
[1]
  allergy inducing activity as compared to aluminum hydroxide gel adjuvant: lower allergy inducing activity
  anti-OVA-specific IgE antibody production as compared to the OVA single administration group: a significant increase in the anti-OVA-specific IgE antibody production was not observed

## Alum [reference compound]
[1]
  anti-OVA-specific IgE antibody production as compared to the OVA single administration group: significantly increased

## CCCCCCCCCCCCCCCCCCCCCC(=O)N[C@@H](Cc1ccccc1)C(=O)OC [SZ71, N-docosanoyl-L-phenylalanine methyl ester]
[2]; Example 7
  adjuvant activity (IgG1) compared with Alum: equivalent to or not less than that of Alum
  anti-OVA-specific IgG1 subclass antibody production compared with Alum: equivalent to or not less than that of Alum
[2]; Example 7, same manner as Example 1, plus Addavax group
  anti-OVA-specific IgG1 subclass antibody production as compared to the OVA single administration group: a significant difference was not found
[1]
  allergy inducing activity as compared to aluminum hydroxide gel adjuvant and Addavax: lower allergy inducing activity

## CCCCCCCCCCCCCCCCCC(=O)N[C@@H](CCC(N)=O)C(=O)OC(C)(C)C [SZ64, N^2-octadecanoyl-L-glutamine tert-butyl ester]
[2]; Example 5
  adjuvant activity (IgG1) compared with Alum: equivalent to or not less than that of Alum
[2]; [3]
  anti-OVA-specific IgG1 subclass antibody production as compared to the OVA single administration group: significantly increased
[2]; Example 8
  adjuvant activity (IgG1) compared with Alum: equivalent to or not less than that of Alum
[2]; [4]
  anti-OVA-specific IgG1 subclass antibody production as compared to the OVA single administration group: significantly increased
[1]
  allergy inducing activity as compared to aluminum hydroxide gel adjuvant: lower allergy inducing activity
  allergy inducing activity as compared to aluminum hydroxide gel adjuvant and Addavax: lower allergy inducing activity
  anti-OVA-specific IgE antibody production as compared to the OVA single administration group: a significant increase in the anti-OVA-specific IgE antibody production was not observed

## CCCCCCCCCCCCCCCCCC(=O)N[C@@H](CCC(N)=O)C(=O)O [SZ65, N^2-octadecanoyl-L-glutamine]
[2]; Example 5
  adjuvant activity (IgG1) compared with Alum: equivalent to or not less than that of Alum
[2]; [3]
  anti-OVA-specific IgG1 subclass antibody production as compared to the OVA single administration group: significantly increased
[1]
  allergy inducing activity as compared to aluminum hydroxide gel adjuvant: lower allergy inducing activity
  anti-OVA-specific IgE antibody production as compared to the OVA single administration group: a significant increase in the anti-OVA-specific IgE antibody production was not observed

## CCCCCCCCCCCCCCCC(=O)N[C@@H](CCCNC(=N)N)C(=O)OC.Cl [SZ63, N^2-hexadecanoyl-L-arginine methyl ester hydrochloride]
[2]; Example 5
  adjuvant activity (IgG1) compared with Alum: equivalent to or not less than that of Alum
[2]; [3]
  anti-OVA-specific IgG1 subclass antibody production as compared to the OVA single administration group: significantly increased
[2]; Example 8
  adjuvant activity (IgG1) compared with Alum: equivalent to or not less than that of Alum
[2]; [4]
  anti-OVA-specific IgG1 subclass antibody production as compared to the OVA single administration group: significantly increased
[1]
  allergy inducing activity as compared to aluminum hydroxide gel adjuvant: lower allergy inducing activity
  anti-OVA-specific IgE antibody production as compared to the OVA single administration group: a significant increase in the anti-OVA-specific IgE antibody production was not observed
